Activity calls are given as the source filed them. No cut-off for these calls is given here.
Experiments:
Rattus norvegicus [1] = experiment: Compound was tested for narcotic antagonist activity determined using an intraperitoneal ED80 of morphine in rat tail-flick assay; type: functional; conditions: ip
Mus musculus [2] = experiment: Compound was tested for analgesic activity by writhing assay in mouse after subcutaneous administration; type: functional; conditions: sc
Rattus norvegicus [3] = experiment: Compound was tested for analgesic activity by tail-flick assay in rat after subcutaneous administration; type: functional; conditions: sc
Mus musculus [4] = experiment: Compound was tested for analgesic activity by writhing assay in mouse after subcutaneous administration; Inactive at 32 uM/Kg; type: functional, organism-based
Rattus norvegicus [5] = experiment: Compound was tested for analgesic activity by tail-flick assay in rat after subcutaneous administration; Inactive at 25 uM/Kg; type: functional, organism-based
Rattus norvegicus [6] = experiment: Compound was tested for narcotic antagonist activity determined using an intraperitoneal ED80 of morphine in rat tail-flick assay; Inactive at 55 uM/Kg; type: functional, organism-based
Rattus norvegicus [7] = experiment: Compound was tested for analgesic activity by tail-flick assay in rat after subcutaneous administration; Inactive at 65 uM/Kg; type: functional, organism-based
Rattus norvegicus [8] = experiment: Compound was tested for analgesic activity by tail-flick assay in rat after subcutaneous administration; Inactive at 32 uM/Kg; type: functional, organism-based
Rattus norvegicus [9] = experiment: Compound was tested for analgesic activity by tail-flick assay in rat after subcutaneous administration; Inactive at 3 uM/Kg; type: functional, organism-based
Mus musculus [10] = experiment: Compound was tested for analgesic activity by writhing assay in mouse after subcutaneous administration; Inactive at 10 uM/Kg; type: functional, organism-based
Rattus norvegicus [11] = experiment: Compound was tested for analgesic activity by tail-flick assay in rat after subcutaneous administration; Inactive at 30 uM/Kg; type: functional, organism-based
Rattus norvegicus [12] = experiment: Compound was tested for narcotic antagonist activity determined using an intraperitoneal ED80 of morphine in rat tail-flick assay; Inactive at 25 uM/Kg; type: functional, organism-based
Rattus norvegicus [13] = experiment: Compound was tested for narcotic antagonist activity determined using an intraperitoneal ED80 of morphine in rat tail-flick assay; Inactive at 50 uM/Kg; type: functional, organism-based

Structure (SMILES): COc1ccc2c3c1OC1C(=O)CC(SCCO)C4C(C2)N(CC2CC2)CCC314 (stereo unspecified)
- ED50 (Rattus norvegicus [1]): > 30 µmol/kg
- ED50 (Mus musculus [2]): 3.4 µmol/kg

Structure (SMILES): COc1ccc2c3c1OC1C(=O)[C@@H]4O[C@@H]4C4C(C2)N(C)CCC314 (stereo partly specified)
- ED50 (Rattus norvegicus [3]): > 30 µmol/kg
- ED50 (Mus musculus [4]): inactive

Structure (SMILES): COc1ccc2c3c1OC1C(=O)[C@@H]4C[C@@H]4C4C(C2)N(C)CCC314 (stereo partly specified)
- ED50 (Rattus norvegicus [3]): 4.7 µmol/kg
- ED50 (Mus musculus [2]): 0.43 µmol/kg

Structure (SMILES): COc1ccc2c3c1O[C@H]1C(=O)CC(SCCO)C4C(C2)N(C)CCC341 (stereo partly specified)
- ED50 (Rattus norvegicus [5]): inactive
- ED50 (Mus musculus [2]): > 25 µmol/kg

Structure (SMILES): COc1ccc2c3c1OC1[C@@H](O)[C@@H]4C[C@@H]4C4C(C2)N(CC2CCC2)CCC314 (stereo partly specified)
- ED50 (Rattus norvegicus [6]): inactive
- ED50 (Mus musculus [2]): > 55 µmol/kg

Structure (SMILES): COc1ccc2c3c1O[C@H]1[C@@H](O)CC[C@H]4[C@@H](C2)N(C)CC[C@@]341 [DIHYDROCODEINE]
- ED50 (Rattus norvegicus [3]): > 22 µmol/kg
- ED50 (Mus musculus [2]): 3.8 µmol/kg

Structure (SMILES): COc1ccc2c3c1O[C@H]1C(=O)CC(CCl)C4C(C2)N(C)CCC341 (stereo partly specified)
- ED50 (Rattus norvegicus [5]): inactive
- ED50 (Mus musculus [2]): 12.2 µmol/kg

Structure (SMILES): COc1ccc2c3c1OC1[C@@H](O)[C@@H]4C[C@@H]4C4C(C2)N(C)CCC314 (stereo partly specified)
- ED50 (Rattus norvegicus [7]): inactive
- ED50 (Mus musculus [2]): 1.79 µmol/kg

Structure (SMILES): COc1ccc2c3c1O[C@H]1C(=O)CC[C@H]4[C@@H](C2)N(C)CC[C@]314 [HYDROCODONE]
- ED50 (Rattus norvegicus [3]): 5.2 µmol/kg
- ED50 (Mus musculus [2]): 2.4 µmol/kg

Structure (SMILES): COc1ccc2c3c1OC1[C@@H](O)[C@@H]4O[C@@H]4C4C(C2)N(C)CCC314 (stereo partly specified)
- ED50 (Rattus norvegicus [8]): inactive
- ED50 (Mus musculus [4]): inactive

Structure (SMILES): Oc1ccc2c(c1)[C@@]13CCCC[C@@]1(O)[C@@H](C2)N(CC1CCC1)CC3 [BUTORPHANOL]
- ED50 (Rattus norvegicus [1]): 2 µmol/kg
- ED50 (Mus musculus [2]): 0.34 µmol/kg

Structure (SMILES): COc1ccc2c3c1OC1C(=O)C=CC4C(C2)N(C)CCC314 (stereo unspecified)
- ED50 (Rattus norvegicus [9]): inactive
- ED50 (Mus musculus [10]): inactive

Structure (SMILES): COc1ccc2c3c1OC1C34CCN(C)C(C2)C4[C@H]2O[C@H]2[C@@]1(O)OC (stereo partly specified)
- ED50 (Rattus norvegicus [11]): inactive
- ED50 (Mus musculus [2]): 18 µmol/kg

Structure (SMILES): COc1ccc2c3c1OC1C(=O)[C@@H]4C[C@@H]4C4C(C2)N(CC2CC2)CCC314 (stereo partly specified)
- ED50 (Rattus norvegicus [1]): 8.7 µmol/kg
- ED50 (Mus musculus [2]): 9 µmol/kg

Structure (SMILES): CC(C)=CCN1CC[C@]2(C)c3cc(O)ccc3C[C@H]1[C@H]2C [(+)-PENTAZOCINE]
- ED50 (Rattus norvegicus [1]): 36.4 µmol/kg
- ED50 (Mus musculus [2]): 13 µmol/kg

Structure (SMILES): COc1ccc2c3c1O[C@H]1C(=O)C=CC4[C@@H](C2)N(CC2CCC2)CC[C@@]341 (stereo partly specified)
- ED50 (Rattus norvegicus [12]): inactive
- ED50 (Mus musculus [2]): 20.3 µmol/kg

Structure (SMILES): COc1ccc2c3c1O[C@H]1[C@@H](O)C=C[C@H]4[C@@H](C2)N(C)CC[C@@]341 [CODEINE]
- ED50 (Rattus norvegicus [3]): 75.1 µmol/kg
- ED50 (Mus musculus [2]): 10.3 µmol/kg

Structure (SMILES): COc1ccc2c3c1OC1C(=O)[C@@H]4C[C@@H]4C4C(C2)N(CC2CCC2)CCC314 (stereo partly specified)
- ED50 (Rattus norvegicus [13]): inactive
- ED50 (Mus musculus [2]): 12.4 µmol/kg

— ChEMBL document CHEMBL1121640, “Analgesic narcotic antagonists. 6. 7 beta, 8 beta-Methano- and 7 beta, 8 beta-epoxydihydrocodeinone” (1981)
